{"source": "paper PMC5754216", "about": "(ACS infectious diseases, 2016)", "key": {"in vitro": {"assay": "in vitro", "conditions": "human"}, "[1]": {"test_system": "Sb-Gluc (modified PV expressing Gaussia Luciferase)", "format": "cell-based, poliovirus", "conditions": "for Ec (%), inhibitory effect on poliovirus replication: 10 µM"}, "[2]": {"test_system": "WT-PV (wild type PV Mahoney)", "format": "cell-based, poliovirus", "conditions": "25 μM, 48 h"}, "[3]": {"test_system": "WT-PV (wild type PV Mahoney)", "assay": "microbe, parasite or virus in culture", "format": "cell-based, poliovirus"}, "Sb-GLuc": {"test_system": "Sb-GLuc", "format": "cell-based, poliovirus"}, "293T cells": {"test_system": "293T cells", "assay": "Cytotoxicity in 293T cells", "format": "cell-based", "conditions": "up to 100 μM"}, "Vero cells": {"test_system": "Vero cells", "assay": "Viability of Vero cells", "format": "cell-based", "conditions": "0.1 μM"}, "[4]": {"format": "in vivo", "conditions": "rhesus macaques, pilot PK studies"}, "HeLa cells": {"test_system": "HeLa cells", "conditions": "10 µM"}, "[5]": {"biological_target": "PV RNA-dependent RNA polymerase 3Dpol (Poliovirus type 1, UniProt P03300)", "sequence (P03300 1749-2209 limits assumed)": "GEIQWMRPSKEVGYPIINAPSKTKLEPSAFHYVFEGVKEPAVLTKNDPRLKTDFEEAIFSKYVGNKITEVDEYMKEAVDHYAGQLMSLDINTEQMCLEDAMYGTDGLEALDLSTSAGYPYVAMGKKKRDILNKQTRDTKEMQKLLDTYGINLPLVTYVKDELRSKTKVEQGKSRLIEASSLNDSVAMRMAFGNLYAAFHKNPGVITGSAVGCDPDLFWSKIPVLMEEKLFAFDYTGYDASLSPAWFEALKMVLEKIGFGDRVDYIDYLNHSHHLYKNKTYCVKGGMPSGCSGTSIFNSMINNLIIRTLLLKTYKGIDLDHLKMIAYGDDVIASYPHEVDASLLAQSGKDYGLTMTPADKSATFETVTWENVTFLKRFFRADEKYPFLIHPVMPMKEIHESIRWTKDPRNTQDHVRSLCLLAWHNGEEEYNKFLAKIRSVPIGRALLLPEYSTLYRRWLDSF", "format": "biochemical"}}, "note": "pIC50: −log10 of the molar value. Entries after “also recorded” stand apart in the source; their conditions may differ. Counter-ions that a name gives are not always drawn."}
{"compound": "CCOc1ccc(Cc2nccc3cc(OCC)c(OCC)cc23)cc1OCC", "note": "[ethaverine hydrochloride]", "values": [{"measurement": "viability at 10 µM", "setting": "in vitro", "value": 88.4, "unit": "%"}]}
{"compound": "Nc1ccn([C@@H]2O[C@H](CO)[C@@H](O)C2(F)F)c(=O)n1", "note": "[gemcitabine, 2′,2′-difluoro-2′-deoxycytidine]", "values": [{"measurement": "pIC50", "setting": "[1]; read-out: IC50 against Sb-GLuc on the basis of luminescent signal", "value": 5.59}, {"measurement": "Protection of HeLa cells from WT-PV (plaque assay)", "setting": "[2]", "value": "completely protected"}, {"measurement": "Increase in viral RNA copies of WT-PV", "setting": "[3]", "value": "No noticeable increase"}, {"measurement": "inhibition at 2 µM", "setting": "[3]; Enterovirus C, HeLa, read-out: Inhibition on WT-PV replication", "value": "> 90", "unit": "%"}, {"measurement": "Inhibition of Sb-GLuc replication in 293T cells", "setting": "Sb-GLuc", "value": "inhibited Sb-GLuc replication"}, {"measurement": "Cytotoxic effect in 293T cells", "setting": "293T cells", "value": "without cytotoxic effect"}, {"measurement": "Effect on Vero cells", "setting": "Vero cells", "value": "kills Vero cells"}, {"measurement": "Impact on immune cell counts and liver/kidney functions", "setting": "[4]", "value": "subtle and reversible impact"}, {"measurement": "viability at 10 µM", "setting": "in vitro", "value": 87.9, "unit": "%"}]}
{"compound": "CC(=O)O[C@]1(C(C)=O)CC[C@H]2[C@@H]3C=C(Cl)C4=CC(=O)[C@@H]5C[C@@H]5[C@]4(C)[C@H]3CC[C@@]21C", "note": "[cyproterone acetate]", "values": [{"measurement": "viability at 10 µM", "setting": "in vitro", "value": 75.4, "unit": "%"}]}
{"compound": "NC[C@H]1O[C@H](O[C@H]2[C@H](O[C@@H]3O[C@H](CO)[C@@H](O)[C@H]3O)[C@@H](O)[C@H](N)C[C@@H]2N)[C@H](N)[C@@H](O)[C@@H]1O.O=S(=O)(O)O", "note": "[ribostamycin sulfate salt]", "values": [{"measurement": "Ec (%), inhibitory effect on poliovirus replication", "setting": "[1]", "value": 81.9, "unit": "%"}, {"measurement": "Vc (%), cell viability rate on HeLa cells", "setting": "HeLa cells", "value": 88.8, "unit": "%"}]}
{"compound": "CCC(C)n1ncn(-c2ccc(N3CCN(c4ccc(OCC5COC(Cn6cncn6)(c6ccc(Cl)cc6Cl)O5)cc4)CC3)cc2)c1=O", "note": "(stereo not drawn) [itraconazole]", "values": [{"measurement": "Protection of HeLa cells from WT-PV (plaque assay)", "setting": "[2]", "value": "partial protective effect"}, {"measurement": "viability at 10 µM", "setting": "in vitro", "value": 79.4, "unit": "%"}]}
{"compound": "Nc1ccn([C@@H]2O[C@H](COP(=O)(O)OP(=O)(O)OP(=O)(O)O)[C@@H](O)C2(F)F)c(=O)n1", "note": "[dFdC-TP, 2′,2′-difluoro-2′-deoxycytidine triphosphate]", "values": [{"measurement": "Inhibition of dsRNA elongation", "setting": "[5]", "value": "apparent inhibition; also recorded: weak inhibition"}, {"measurement": "Inhibition of dsRNA synthesis or elongation", "setting": "[5]", "value": "complete inhibition"}]}
{"compound": "Cl.Cl.OCCN1CCN(CC/C=C2/c3ccccc3Sc3ccc(Cl)cc32)CC1", "note": "[zuclopenthixol hydrochloride]", "values": [{"measurement": "Ec (%), inhibitory effect on poliovirus replication", "setting": "[1]", "value": 81.8, "unit": "%"}, {"measurement": "Vc (%), cell viability rate on HeLa cells", "setting": "HeLa cells", "value": 92.0, "unit": "%"}]}
{"compound": "Nc1nc(O)c2[nH]nnc2n1", "note": "[azaguanine-8]", "values": [{"measurement": "Vc (%), cell viability rate on HeLa cells", "setting": "HeLa cells", "value": 47.54, "unit": "%"}]}
{"compound": "CCCC1C(=O)N2C(N(C)C)=Nc3ccc(C)cc3N2C1=O", "note": "(stereo not drawn) [azapropazone]", "values": [{"measurement": "viability at 10 µM", "setting": "in vitro", "value": 91.2, "unit": "%"}]}
{"compound": "COc1cc2ncnc(Nc3ccc(F)c(Cl)c3)c2cc1OCCCN1CCOCC1", "note": "[gefitinib]", "values": [{"measurement": "viability at 10 µM", "setting": "in vitro", "value": 80.1, "unit": "%"}]}
{"compound": "meclocycline sulfosalicylate", "values": [{"measurement": "Ec (%), inhibitory effect on poliovirus replication", "setting": "[1]", "value": 82.1, "unit": "%"}, {"measurement": "Vc (%), cell viability rate on HeLa cells", "setting": "HeLa cells", "value": 81.5, "unit": "%"}]}
{"compound": "C=C(NC(=O)C(=C)NC(=O)c1csc(C2=N[C@@H]3c4csc(n4)[C@H]4NC(=O)c5csc(n5)[C@H]([C@](C)(O)[C@@H](C)O)NC(=O)[C@H]5CSC(=N5)/C(=C/C)NC(=O)[C@H]([C@@H](C)O)NC(=O)c5csc(n5)[C@]3(CC2)NC(=O)[C@H](C)NC(=O)C(=C)NC(=O)[C@H](C)NC(=O)[C@H]([C@@H](C)CC)N[C@@H]2C=Cc3c([C@H](C)O)cc(nc3[C@H]2O)C(=O)O[C@@H]4C)n1)C(N)=O", "note": "[thiostrepton]", "values": [{"measurement": "viability at 10 µM", "setting": "in vitro", "value": 87.9, "unit": "%"}]}
{"compound": "CC(=O)N1CCN(c2ccc(OCC3COC(Cn4ccnc4)(c4ccc(Cl)cc4Cl)O3)cc2)CC1", "note": "(stereo not drawn) [ketoconazole]", "values": [{"measurement": "Protection of HeLa cells from WT-PV (plaque assay)", "setting": "[2]", "value": "partial protective effect"}, {"measurement": "viability at 10 µM", "setting": "in vitro", "value": 103, "unit": "%"}]}
